Data reported in article PMC10115881, “Disrupting the α-synuclein-ESCRT interaction with a peptide inhibitor mitigates neurodegeneration in preclinical models of Parkinson’s disease” (Nature Communications, 2023).

Tests used:
Format in all cases: cell-based, human
[1] = system: A53T a-syn-mediated cytotoxicity in HEK293 cells; assay: Pooled lentiviral 7-mer peptide cytotoxicity screen, A53T a-syn + MG132; details: for Reads 0M MG132: Illumina reads, average Phred >30;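 for Slope Norm Reads: reads normalized to total peptide reads per sample with scalar factor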
Description: (§1) We used a lentiviral library of 50,549 7-mer peptides enriched in PPI motifs[13] on a green fluorescent protein (GFP) scaffold (Fig. 1A). We infected cells in a pooled format and the amino acid sequence of each peptide served as its own barcode. By using a low multiplicity of infection followed by puromycin selection, each infected cell expressed one unique GFP-peptide. We screened for peptides that reduced a-syn-mediated cytotoxicity or a-syn oligomers in parallel (Fig. 1A). To cause cytotoxicity relevant to PD, we induced proteostatic stress in HEK293 cells by inhibiting the proteasome with MG132 and overexpressing human WT a-syn associated with idiopathic PD in one screen or the more toxic mutant A53T a-syn associated with familial PD in a second screen. This combination of a-syn overexpression and pharmacological proteasome inhibition led to death of most cells, with only those that expressed a protective peptide surviving. By extracting genomic DNA from the surviving cells and amplifying the peptide coding sequences, we identified the protective peptides (Fig. 1A). To detect a-syn oligomers, we used a protein fragment complementation assay (PCA) of a-syn oligomerization in HEK293 cells. In this assay, human A53T a-syn was fused to either the C- or N-terminal half of yellow fluorescent protein (YFP). No fluorescence is detectable while a-syn exists in monomers but, when a-syn oligomerizes, the two halves of YFP come in close enough proximity to form a functional, spontaneously fluorescent protein. […] Our screens yielded 10 hits (Table S1). The hit with the most reads (i.e., the most abundant) was the same peptide in all screens: IPIQLKA (named PDpep1) (Table S1). We validated the cytoprotective effects of PDpep1 in HEK293 cells overexpressing WT or A53T a-syn (Figs. 1B, S1A), as well as its ability to reduce WT or A53T a-syn oligomers in a luciferase-based PCA[18]–[20] compared to a scrambled control peptide (Figs. 1C, S1B).
(§2) HEK293T cells (ATCC, CRL-3216) were maintained in DMEM supplemented with 10% FBS and 1% pen/strep/glutamine, and the appropriate selection antibiotics when required. Lentiviruses were made in a 15 cm dish format by transfecting packaging cells (HEK293T) with a three-plasmid system (expression vector, psPAX2 and pMD2.G) and using Polyjet DNA transfection reagent (FroggaBio, SL100688.1). Viral transduction of HEK293T cells were performed with a multiplicity of infection (MOI) of 0.3. Infected cells were selected in puromycin-containing medium to eliminate uninfected cells and three aliquots of cells were collected for sampling of the initial (T0) cell population. Cells were treated with MG132 at concentrations of 0, 10, 25, or 50 µM. For the cell viability screen, surviving cells were collected and gDNA was extracted for identification of peptide inhibitors of cell toxicity. For the inhibition of a-syn aggregation screen, a protein fragment complementation assay (PCA) was used by transfecting cells with split YFP-a-syn constructs following stable expression of the peptides. Cells were sorted based on their YFP fluorescence intensities with a FACSVantage SE cell sorter (BD Bioscience) and gDNA was extracted for identification of peptides.
(§3) Genomic DNA (gDNA) from peptide expressing cells at different time-points was extracted using QIAamp DNA Blood Mini Kit. PCR amplifications of peptides from gDNA in parallel with the lentiviral plasmid library (naïve library) were performed using indexed Illumina PCR primers to incorporate both the Illumina adapter sequences and indexing sequences. Each 50 μl reaction contained 3.2 μg of template, 2× PCR buffer, 2× enhancer solution, 300 μM each dNTP, 900 nM each of Adapter A (5′-[…]-[…]-3′) and Adapter B (5′-[…]-[…]-3′), 1 mM MgSO4, 3.75 units of Platinum Pfx polymerase, and water to 50 μl. […]

[2] = system: A53T a-syn expressing HEK293 cells; assay: Cell Titer-Glo cell viability, A53T a-syn expressing cells; details: A53T a-syn cells
Method: Oligonucleotides encoding the specific peptides were synthesized and individually cloned into the pLJM1 nGFP lentiviral vector. HEK293T cells were infected with individual constructs, and cell viability was assessed using Cell Titer-Glo luminescent assay (Promega) at 72 h post infection.
Cells were trypsinized from subconfluent cultures as described earlier, suspended in culture media, and then seeded into triplicate wells of a 96-well plate (100 µl/well) at a density of 1.5 × 10^4 cells per well with standard culture conditions of 5% CO2 at 37 °C. Cells were infected with lentivirus expressing peptide at a MOI of 5 for 72 h or transfected with plasmid for 72 h. Cell Titer-Glo reagent was added to each well (30 µL), according to the manufacturer’s protocol and […].

[3] = system: WT a-syn-mediated cytotoxicity in HEK293 cells; assay: Pooled lentiviral 7-mer peptide cytotoxicity screen, WT a-syn + MG132; details: for Reads 0M MG132: Illumina reads, average Phred >30;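 for Slope Norm Reads: reads normalized to total peptide reads per sample with scalar factor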
Description: as §1, §2, §3

[4] = system: A53T a-syn oligomers; assay: Split-YFP PCA/FACS screen of A53T a-syn oligomers
Description: as §1, §2
Cells were harvested by trypsin treatment and centrifuged at 500 × g for 5 min. The pellet was resuspended in ice-cold PBS and centrifuged again. The pellet was then resuspended at a concentration of 4 × 10^6 cells/ml in the sorting buffer, which is PBS containing 100 Kunitz DNase I/ml, 10 μg/ml propidium iodide (Sigma), and 2% FBS. The cells were then sent through a 40 μm filter to remove large clumps and loaded into either a FACScan Flow Cytometer (BD Bioscience) for cell analysis or a FACSVantage SE cell sorter (BD Bioscience) for cell sorting. The cells with positive propidium iodide staining (i.e., dead cells) were first eliminated from the analysis. […]

Row | Substance | Reads 10M MG132 [1] | Reads 25M MG132 [1] | Reads 50M MG132 [1] | Slope Norm Reads [1] | Reads 0M MG132 [1] | Reads 10M MG132 [3] | Reads 25M MG132 [3] | Slope Norm Reads [3] | Reads 0M MG132 [3] | Reads GFP High [4] | Reads GFP Inter [4] | Reads GFP Neg [4] | Reads Ratio [4] | also measured
1 | QSPSSAW [library 7-mer, A53T screen] | 45 | 59 | 284 | 0.82 | 9 | – | – | – | – | – | – | – | – | –
2 | CHMP2B 1-178: shorter truncated version of CHMP2B (amino acids 1–178), implicated in FTD | – | – | – | – | – | – | – | – | – | – | – | – | – | Effect on cell survival/viability [2]: increased toxicity
3 | LPASMPC [library 7-mer, WT screen] | – | – | – | – | – | 16 | 27 | 0.09 | 2 | – | – | – | – | –
4 | LKRDQPV [library 7-mer, oligomers screen] | – | – | – | – | – | – | – | – | – | 3 | 0 | 118 | 30.30 | –
5 | ECHTKIR [library 7-mer, oligomers screen] | – | – | – | – | – | – | – | – | – | 1 | 0 | 76 | 39.21 | –
6 | VYLDILG [library 7-mer, oligomers screen] | – | – | – | – | – | – | – | – | – | 1 | 0 | 59 | 30.55 | –
7 | CKYRSVL [library 7-mer, A53T screen] | 7 | 11 | 438 | 1.30 | 5 | – | – | – | – | – | – | – | – | –
8 | DWLMVNL [library 7-mer, WT screen] | – | – | – | – | – | 13 | 29 | 0.13 | 1 | – | – | – | – | –
9 | AAYNLCA [library 7-mer, WT screen] | – | – | – | – | – | 14 | 19 | 0.07 | 1 | – | – | – | – | –
10 | GWTTVRR [library 7-mer, A53T screen] | 1 | 29 | 322 | 0.94 | 15 | – | – | – | – | – | – | – | – | –
11 | PAMQIDG [library 7-mer, A53T screen] | 20 | 53 | 337 | 0.96 | 32 | – | – | – | – | – | – | – | – | –
12 | LQVGVAV [library 7-mer, WT screen] | – | – | – | – | – | 25 | 23 | 0.09 | 1 | – | – | – | – | –
13 | NNQYSFV [library 7-mer, oligomers screen] | – | – | – | – | – | – | – | – | – | 1 | 0 | 58 | 30.04 | –
14 | PLPTGMG [library 7-mer, WT screen] | – | – | – | – | – | 3 | 20 | 0.08 | 1 | – | – | – | – | –
15 | QVSVAQQ [library 7-mer, A53T screen] | 13 | 120 | 246 | 0.69 | 45 | – | – | – | – | – | – | – | – | –
16 | WPRYPHI [library 7-mer, oligomers screen] | – | – | – | – | – | – | – | – | – | 1 | 0 | 92 | 47.36 | –
17 | GAAAGGT [library 7-mer, WT screen] | – | – | – | – | – | 10 | 17 | 0.06 | 1 | – | – | – | – | –
18 | MQMKLSQ [library 7-mer, oligomers screen] | – | – | – | – | – | – | – | – | – | 1 | 0 | 70 | 36.15 | –
19 | QSVLQQV [library 7-mer, A53T screen] | 2 | 12 | 282 | 0.82 | 13 | – | – | – | – | – | – | – | – | –
20 | LPSKIYK [library 7-mer, oligomers screen] | – | – | – | – | – | – | – | – | – | 1 | 0 | 57 | 29.53 | –
21 | LSGECVP [library 7-mer, WT screen] | – | – | – | – | – | 28 | 28 | 0.07 | 3 | – | – | – | – | –
22 | TQKRELT [library 7-mer, oligomers screen] | – | – | – | – | – | – | – | – | – | 1 | 0 | 69 | 35.64 | –
23 | CMVHSAG [library 7-mer, WT screen] | – | – | – | – | – | 14 | 33 | 0.08 | 4 | – | – | – | – | –
24 | EDVNKCV [library 7-mer, A53T screen] | 6 | 13 | 233 | 0.68 | 6 | – | – | – | – | – | – | – | – | –
25 | CFLFQIQ [library 7-mer, oligomers screen] | – | – | – | – | – | – | – | – | – | 1 | 0 | 88 | 45.32 | –
26 | QSVVTAP [library 7-mer, A53T screen] | 6 | 37 | 465 | 1.38 | 8 | – | – | – | – | – | – | – | – | –
27 | QAELSNS [library 7-mer, A53T screen] | 8 | 10 | 235 | 0.69 | 6 | – | – | – | – | – | – | – | – | –
28 | RAPSCHL [library 7-mer, WT screen] | – | – | – | – | – | 13 | 33 | 0.15 | 1 | – | – | – | – | –
